Source: patent publication US7348363B2, “Method of controlling zoological and aquatic plant growth” (priority 2000, dated 2008)

How the values were obtained:
[1] = test system: E. affinis; assay: Copepod assay (Eurytemora affinis); format: in vivo
Protocol: Cultures of Eurytemora affinis were continuously maintained in 15 seawater in a 8/16 hours light/dark regime fed every 48 hours on Isochrysis galbana. Toxicity bioassays are conducted on early instar naupliar larvae (chronic mortality/fecundity assay) or adults (acute LC50 assay).
Larvae were collected as follows. Cultures were filtered with a 200 m Nitex filter to separate the adults from earlier stages. Adults were then allowed to spawn for 48-72 hours in order to produce stage 1-3 naupliar larvae to be used for the assay. Assays were conducted on batches of 10 larvae per treatment (in triplicate). At 20° C., assays were continued for 12 days (shorter at higher temperatures). Endpoints were the percentage of F0 generation (present as adults) and total numbers of F1 generation (present as eggs or naupliar larvae). LC50 assays on adult copepods were conducted for 24 or 48 hours with percentage mortality as the end-point. All assays were conducted at 15 salinity on a 8 hour/16 hour light/dark regime.

[2] = test system: T. isochrysis galbana; assay: Phytoplankton assay, Isochrysis galbana; format: cell-based
Protocol: The dinoflagellate prorocentrum minimum was cultured at the Chesapeake Biological Laboratory culture facility from in-house stocks grown up as a 1 liter culture in sterilized 16 ppt salinity filtered water fortified with f/2 nutrient media. The culture was diluted to 5 liters with filtered estuarine water 16 ppt salinity prior to the experiments. The approximate starting cell density was 2×10^6 cells per ml.
(§1) Each 600 ml glass beaker containing 400 ml dinoflagellate culture was allowed to grow under continuous fluorescent light following the exposure treatments. At daily intervals, samples were taken for cell counting and microscopical examination, extraction of chlorophyll pigments with acetone and for direct in-vivo chlorophyll fluorescence determination.
100 ml of each dinoflagellate culture treatment in triplicate were filtered through a 25 mm GFF filter under gentle vacuum. The filters were folded and placed in polypropylene centrifuge tubes and exactly 4 ml of HPLC grade acetone added. The samples were sonicated with a probe (Virsonic 50) for approximately 2 minutes to disrupt cells after which they are allowed to extract at 4° C. overnight in a refrigerator. After centrifuging for 5 minutes, the supernatant was transferred to a quartz fluorometer cell and the fluorescence recorded using a Hitachi F4500 scanning fluorescence detector. Excitation was fixed at 436 nm with a 10 nm slit and the emission is recorded at 660 nm with a 10 nm slit. The photomultiplier is operated at 700 V. Authentic chlorophyll a and b (Sigman Chemicals) were dissolved in HPLC grade acetone to calibrate the spectrofluorometer. Three point calibrations were performed in triplicate on a daily basis and relative fluorescence response converted into units of ug/l.
In-vivo fluorimetry with the Hitachi F4500 involves suspending the algal cells and transferring an aliquot to a disposable polycarbonate cuvette and recording the emission spectra from 600-720 nm with excitation fixed at 436 nm with a 10 nm slit width.
Direct cell counts were made with a compound binocular microscope and a hemacytometer counting triplicate samples in 80 squares.
(§2) End-points for quinone toxicity include cell motility, inhibition of cell division, inhibition of chlorophyll synthesis and chloroplate bleaching.
(§3) Assays for other species of phytoplankton including Chlorella sp. and Isochrysis galbana followed the above outlined procedures.

[3] = test system: Fish eggs; format: in vivo
[4] = test system: Neochloris; assay: Phytoplankton toxicity, Neochloris; format: cell-based
Protocol: as §1, §2, §3

[5] = test system: Zebra mussel larvae; assay: Zebra mussel larvae bioassay; format: in vivo, Dreissena polymorpha
Protocol: Zebra mussel broodstock were maintained in natural well water with calcium and magnesium adjusted to a hardness level equivalent to approximately 25 mg/l hardness.
(§4) At 20° C., larvae remain in the free-swimming state for 30-40 days prior to settlement. Bioassays using early larval stages of this species are variants on standard oyster embryo bioassays. Assays are conducted at the embryo, trochophore and D-hinge stage.
The assays examined the toxicity of various quinones to the earliest life history stages, namely embryo to trochophore stage (2-17 hours); trochophore stage (2-17 hours); trochophore to D-hinge stage (17-48 hours); and embryo to D-hinge stage (2-48 hours).
Approximately 25 adults from broodstock (held at 10-12° C.) were cleaned of debris and transferred to 1500 ml glass beakers containing approximately 800 ml of culture water. Water temperature was rapidly raised to 30-32° C. by the addition of warm water. Mussels treated this way usually spawn within 30 minutes. If no spawning occurred within this time, a slurry made from ripe gonads homogenized in culture water is added.
A successful spawn yielded >50,000 eggs/female. To check for successful fertilization, zygotes were transferred to a Sedgewick-Rafter cell for counting and examination under a binocular microscope. Fertilized eggs were seen to be actively dividing and reached the 8-cell stage between 2-3 hours following fertilization. A better than 70% fertilization rate is considered indicative of viable experimental material.
Assays were conducted on at least 500 embryos/larvae in each of 4 replicates. A range of 5 test concentrations (in the ppm range) plus controls were used. A density of 10 embryos per ml were used for embryo assays, and for D-hinge larvae 2-larvae/ml were used. The tests were static non-renewal. Any assay lasting 24 hours or longer received food (cultured Neochloris @5×10^4 cells ml-1) at 24 hour intervals.
Following counting and adjustment of densities, embryo assays were started as early as 2 hours following fertilization by inoculating a known number of embryos into the test media. Late stages were held in culture water until inoculation. Survivors were counted using Sedgewick-Rafter cells, with adjustments for control mortality using Abbott's formula. Probit and Dunnett's test are used to obtain the LD50, Lowest Observed Effect Concentration (LOEC) and No Observed Effect Concentration (NOEC) (Toxcalc 5.0).

[6] = test system: Minnow larvae; assay: Fathead minnow acute assay (fish assay); format: in vivo, Pimephales promelas
Protocol: Fathead minnows (Pimephales promelas) from in-house laboratory cultures were used for these tests. Animals were cultured in natural well water with hardness adjusted to >50 ppm (CaCO3) equivalents. Fish were spawned in a 20 gal spawning tank containing PVC tubing as refuges. Newly hatched larvae were transferred to a holding tank at densities of 50-100/l until use. Brine shrimp nauplii (Artemia) were used as food.
The tests were static renewal. The test durations were 48 hours and 96 hours. The temperature was 20° C.±1° C. Light quality was ambient laboratory illumination. Light intensity was 10-20 E/m^2/sec (50-100 ft-c). The photoperiod was 16 hours of light and 8 hours of dark. The test container was 400 ml. Renewal of test solutions occurred at 48 hours. The age of test organisms was 1-14 days, with a 24 hour age range. There were 10 organisms per container. There were 3 replicates per concentration of individual quinones in the ppm range. There are 5 test concentrations plus controls (initial range-finding tests performed on logarithmic series). All tests were conducted within 5 hours of dissolving the test compound. Animals were fed Artemia nauplii prior to the test and 2 hours prior to the 48 hour test solution renewal. […]
The test objectives are to determine LC50, LOEC and NOEC. […] Data are analyzed using Toxcalc 5.0.

[7] = test system: Artemia salina; assay: Artemia salina toxicity; format: in vivo
Protocol: (§5) The effectiveness and toxicity levels of the compounds were evaluated using active plant and animal species. The various compounds were added to the water at controlled rates and amounts.

[8] = test system: Oyster larvae; assay: Oyster larvae toxicity; format: in vivo
Protocol: as §5, §4

[9] = test system: Banana snails (Bulimulis alternata); assay: Banana snail bioassay on treated lettuce leaves; format: in vivo; settings: for Avoidance of treated leaves: lettuce leaves sprayed with 5, 10 and 20 mg/l aqueous solution
Protocol: Banana snails (Bulimulis alternata) were obtained from a commercial supplier and were fed lettuce leaves until the start of the bioassay.
Ten snails were placed in covered 1 liter glass beakers, on approximately 50 cm^2 lettuce leaves which had been sprayed with a fine mist of an aqueous solution of 2,3-dimethoxy-5-methyl-1,4-benzoquinone at three concentrations: 5, 10 and 20 mg/l. The treated leaves were allowed to dry before exposure to the snails. 10 snails were placed on approximately 50 cm^2 of untreated lettuce leaf as a control. Treatments and controls were maintained at approximately 20° C. in the dark.
Others climbed up the walls of the beakers away from the leaves. […] In contrast, the control group of snails consumed more than 10% of the leaf surface area after 24 hours and continued to feed and had consumed about 20% of the leaf after 48 hours.

SMILES | Toxicity Data: time to toxic effect at 5 ppm [1] | Toxicity Data: Toxic at (concentration) [2] | Toxicity Data: Toxic at (concentration) [7] | other results
CC1=CC(=O)c2c(O)cccc2C1=O [compound 1, 2-methyl-5-hydroxy-1,4-napthoquinone] | 5 ppm < 10 min | Toxic at 50 ppb | Toxic at 5 ppm | Toxicity Data: Kills & hatch prevention @ (concentration) [3]: prevention @ 1 ppm; Toxicity Data: Toxic at (concentration) [4]: Toxic at 500 ppm; Toxicity Data: Toxic at (concentration) ([5]; Zebra larvae): Toxic at 200 ppb; Toxicity Data: Toxic at (concentration) [6]: Toxic at 1 ppm
CC1=CC(=O)c2ccccc2C1=O [compound 2, 2-methyl-1,4-naphthalenedione (Vitamin K3)] | 5 ppm < 15 min | Toxic at 500 ppb | Toxic at 5 ppm | Toxicity Data: toxic concentration [8]: 1 ppm; Toxicity Data: Kills & hatch prevention @ (concentration) [3]: prevention @ 1 ppm; Toxicity Data: Toxic at (concentration) ([5]; Zebra mussel larvae): Toxic at 500 ppm
CC1(S(=O)(=O)[O-])CC(=O)c2ccccc2C1=O.[Na+] (stereo not shown) [compound 3, 2-methyl-2-sodium metabisulfite-1,4-naphthalenedione] | 5 ppm < 15 min | Toxic at 500 ppb | Toxic at 5 ppm | Toxicity Data: toxic concentration [8]: 500 ppb; Toxicity Data: Kills & hatch prevention @ (concentration) [3]: prevention @ 1 ppm; Toxicity Data: Toxic at (concentration) ([5]; Zebra mussel larvae): Toxic at 1 ppm
O=C1c2ccccc2Cc2ccccc21 [compound 4, Anthrone] | – | Toxic at 2 ppm | – | –
O=C1c2ccccc2C(=O)c2c1ccc(O)c2O [compound 5, 1,2-dihydroxyanthraquinone] | – | Toxic at 1 ppm | Toxic at 5 ppm | Toxicity Data: Toxic at (concentration) [1]: Toxic at 1 ppm
Cc1cc(O)c2c(c1)C(=O)c1cccc(O)c1C2=O [compound 6, 3-methyl-1,8-dihydroxyanthraquinone] | – | Toxic at 1 ppm | – | Toxicity Data: Toxic at (concentration) ([5]; Zebra mussel larvae): Toxic at 1 ppm
O=C(O)c1ccc2c(c1)C(=O)c1ccccc1C2=O [compound 7, anthraquinone-2-carboxylic acid] | 5 ppm < 5 hours | Toxic at 1 ppm | – | –
O=C1c2ccccc2C(=O)c2c(Cl)cccc21 [compound 8, 1-chloroanthraquinone] | 5 ppm < 5 hours | Toxic at 500 ppb | – | Toxicity Data: Toxic at (concentration) [4]: Toxic at 500 ppb
Cc1ccc2c(c1)C(=O)c1ccccc1C2=O [compound 9, 2-methyl-anthraquinone] | 5 ppm < 45 min | Toxic at 500 ppb | Toxic at 5 ppm | Toxicity Data: Toxic at (concentration) [4]: Toxic 1 ppm; Toxicity Data: Toxic at (concentration) ([5]; Zebra mussel larvae): Toxic at 200 ppm
O=C1C=CC(=O)c2ccccc21 [compound 10, 1,4-naphthalenedione] | 5 ppm < 10 min | Toxic at 1 ppm | – | Toxicity Data: toxic concentration [8]: Toxic at 5 ppm
O=C1c2ccccc2C(=O)c2ccccc21 [compound 11, anthraquinone] | 5 ppm < 4 hours | – | – | –
O=C1C=CC(=O)C=C1 [compound 12, 1,4-benzoquinone] | – | Toxic at 500 ppb | – | Toxicity Data: Control hatch at (concentration) [3]: at 1 ppm
CC1=CC(=O)C=CC1=O [compound 13, methyl-1,4-benzoquinone (toluquinone)] | – | Toxic at 500 ppb | – | –
COC1=C(OC)C(=O)C(C)=CC1=O [compound 14, 2,3-methoxy-5-methyl-1,4-benzoquinone] | – | Toxic at 5 ppm | – | Avoidance of treated leaves ([9]; after 48 hours): avoidance behavior was again observed; Avoidance of treated leaves ([9]; all treatments, 24 hours): significant avoidance relative to control; Feeding activity ([9]; several snails of the treatment group, leaves completely intact): no feeding activity at all
